Assay results reported in patent publication US9789181B2, “PAN-DR binding polypeptides and uses thereof” (Epimmune Inc., priority 2009, dated 2017).
Where no end group is shown, it is not given here.

Key:
HLA DRB1 *0901 = HLA DRB1 *0901 (Homo sapiens, UniProt P01903+P01911, A100R/A103E/D57H/D86V/F55Y/F60I/F76Y/I96F/K127E/L162R/M171V/P40D/Q125H/Q99R/R33Q/R42F/S133A/S66N/T210M/V115G/W38K/Y107V/Y59G/Y89S); experiment: IC50nM to purified HLA | DRB1 *0901
Experimental: (§1) Table printed on a drawing sheet, FIG. 1 (contd.)
Head of the field: IC50nM to purified HLA | DRB1 *0901
(§2) First copying reader's note: Continued from the preceding sheet of FIG. 1; decimal commas are used, the analog names give the substituted residues and positions in PADRE, and some values are printed in italics or bold and some SEQ ID NOs bold and underlined without a legend on this sheet.
Where the first naming reader finds the target: head: IC50nM to purified HLA | DRB1 *0901

HLA DRB1 *0405 = HLA DRB1 *0405 (Homo sapiens, UniProt P01903+P01911, A100R/A169T/D86S/F76Y/I96L/K127E/L162R/M171V/N62H/P40V/Q125Y/R42H/S133A/S149N/S66Y/V115G/V209L/W38E); experiment: IC50nM to purified HLA | DRB1 *0405
Experimental: as §1
Head of the field: IC50nM to purified HLA | DRB1 *0405
as §2
Where the first naming reader finds the target: head: IC50nM to purified HLA | DRB1 *0405

HLA DRB1 *0301 = HLA DRB1 *0301 (Homo sapiens, UniProt P01903+P01911, A100K/A102G/A103R/A169T/F55Y/I96L/K41T/L162R/M171V/P40S/Q125H/Q178H/Q39Y/R42S/S66N/T106N/T262R/W38E/Y61H); experiment: IC50nM to purified HLA | DRB1 *0301
Experimental: as §1
Head of the field: IC50nM to purified HLA | DRB1 *0301
as §2
Where the first naming reader finds the target: head: IC50nM to purified HLA | DRB1 *0301

HLA DRB1 *1302 = HLA DRB1 *1302 (Homo sapiens, UniProt P01903+P01911, A100E/A169T/K41T/L162R/M171V/P40S/Q125H/Q178H/Q39Y/Q99D/R42S/S66N/T262R/V115G/W38E/Y61H); experiment: IC50nM to purified HLA | DRB1 *1302
Experimental: as §1
Head of the field: IC50nM to purified HLA | DRB1 *1302
as §2
Where the first naming reader finds the target: head: IC50nM to purified HLA | DRB1 *1302

HLA DRB5 *0101 = HLA DRB5 *0101 (Homo sapiens, UniProt P01903+Q30154); experiment: IC50nM to purified HLA | DRB5 *0101
Experimental: as §1
Head of the field: IC50nM to purified HLA | DRB5 *0101
as §2
Where the first naming reader finds the target: head: IC50nM to purified HLA | DRB5 *0101

HLA DRB1 *0404 = HLA DRB1 *0404 (Homo sapiens, UniProt P01903+P01911, A100R/A169T/F76Y/I96L/K127E/L162R/M171V/N62H/P40V/Q125Y/R42H/S133A/S149N/S66Y/V209L/W38E); experiment: IC50nM to purified HLA | DRB1 *0404
Experimental: as §1
Head of the field: IC50nM to purified HLA | DRB1 *0404
as §2
Where the first naming reader finds the target: head: IC50nM to purified HLA | DRB1 *0404

HLA DRB1 *1501 = HLA DRB1 *1501 (Homo sapiens, UniProt P01903+P01911); experiment: IC50nM to purified HLA | DRB1 *1501
Experimental: as §1
Head of the field: IC50nM to purified HLA | DRB1 *1501
as §2
Where the first naming reader finds the target: head: IC50nM to purified HLA | DRB1 *1501

HLA DRB1 *0101 = HLA DRB1 *0101 (Homo sapiens, UniProt P01903+P01911, A100R/D57E/F55L/F60I/F76Y/I96L/L162R/M171V/P40L/Q125E/R42F/V115G/Y59C); experiment: IC50nM to purified HLA | DRB1 *0101
Experimental: as §1
Head of the field: IC50nM to purified HLA | DRB1 *0101
as §2
Where the first naming reader finds the target: head: IC50nM to purified HLA | DRB1 *0101

HLA DRB1 *0401 = HLA DRB1 *0401 (Homo sapiens, UniProt P01903+P01911, A100K/A169T/F76Y/I96L/K127E/L162R/M171V/N62H/P40V/Q125Y/R42H/S133A/S149N/S66Y/V115G/V209L/W38E); experiment: IC50nM to purified HLA | DRB1 *0401
Experimental: as §1
Head of the field: IC50nM to purified HLA | DRB1 *0401
as §2
Where the first naming reader finds the target: head: IC50nM to purified HLA | DRB1 *0401

HLA DRB4 *0101 = HLA DRB4 *0101 (Homo sapiens, UniProt P01903+P13762, G164S); experiment: IC50nM to purified HLA | DRB4 *0101
Experimental: as §1
Head of the field: IC50nM to purified HLA | DRB4 *0101
as §2
Where the first naming reader finds the target: head: IC50nM to purified HLA | DRB4 *0101

HLA DRB1 *0802 = HLA DRB1 *0802 (Homo sapiens, UniProt P01903+P01911, A100R/A103L/A169T/F76Y/H45Y/I96F/K41T/L162R/M171V/P40S/Q125H/Q178H/Q39Y/Q99D/R218S/R42G/S66Y/V115G/W38E); experiment: IC50nM to purified HLA | DRB1 *0802
Experimental: as §1
Head of the field: IC50nM to purified HLA | DRB1 *0802
as §2
Where the first naming reader finds the target: head: IC50nM to purified HLA | DRB1 *0802

HLA DRB1 *1101 = HLA DRB1 *1101 (Homo sapiens, UniProt P01903+P01911, A100R/A169T/A87E/I96F/K41T/L162R/M171V/P40S/Q125H/Q178H/Q39Y/Q99D/R42S/S66Y/T262R/V115G/W38E); experiment: IC50nM to purified HLA | DRB1 *1101
Experimental: as §1
Head of the field: IC50nM to purified HLA | DRB1 *1101
as §2
Where the first naming reader finds the target: head: IC50nM to purified HLA | DRB1 *1101

HLA DRB1 *0701 = HLA DRB1 *0701 (Homo sapiens, UniProt P01903+P01911, A100R/A102G/A103Q/D57E/D86V/E43K/F76Y/K127E/L162R/M171V/P40G/Q125H/Q99D/R33Q/R42Y/R54Q/S133A/S66F/T210M/V115G/Y107V/Y59L/Y89S); experiment: IC50nM to purified HLA | DRB1 *0701
Experimental: as §1
Head of the field: IC50nM to purified HLA | DRB1 *0701
as §2
Where the first naming reader finds the target: head: IC50nM to purified HLA | DRB1 *0701

Chain of HLA DRB1 *1302 (P01903 26-254 limits assumed, other chains not shown): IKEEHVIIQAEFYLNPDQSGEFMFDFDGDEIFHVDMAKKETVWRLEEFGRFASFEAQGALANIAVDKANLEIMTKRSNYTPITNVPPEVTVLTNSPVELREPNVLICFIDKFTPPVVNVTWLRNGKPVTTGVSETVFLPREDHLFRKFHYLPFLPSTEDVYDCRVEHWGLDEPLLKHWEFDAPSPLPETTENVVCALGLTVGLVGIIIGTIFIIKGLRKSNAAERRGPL
Chain of HLA DRB4 *0101 (P01903 26-254 limits assumed): as the sequence (P01903 26-254 limits assumed, other chains not shown) above
Chain of HLA DRB4 *0101 (P13762 whole entry G164S): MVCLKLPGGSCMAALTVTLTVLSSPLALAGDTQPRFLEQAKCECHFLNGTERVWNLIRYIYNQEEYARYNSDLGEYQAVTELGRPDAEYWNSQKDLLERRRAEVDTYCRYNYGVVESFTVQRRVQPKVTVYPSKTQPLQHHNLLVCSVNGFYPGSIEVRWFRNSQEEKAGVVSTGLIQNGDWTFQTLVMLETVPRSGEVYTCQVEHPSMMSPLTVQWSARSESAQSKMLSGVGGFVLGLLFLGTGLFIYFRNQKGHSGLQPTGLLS
Chain of HLA DRB1 *1101 (P01903 26-254 limits assumed, other chains not shown): as the sequence (P01903 26-254 limits assumed, other chains not shown) above
Chain of HLA DRB1 *0301 (P01903 26-254 limits assumed, other chains not shown): as above

Sequence	IC50 (HLA DRB1 *0901) [nM]	IC50 (HLA DRB1 *0405) [nM]	IC50 (HLA DRB1 *0301) [nM]	IC50 (HLA DRB1 *1302) [nM]	IC50 (HLA DRB5 *0101) [nM]	IC50 (HLA DRB1 *0404) [nM]	IC50 (HLA DRB1 *1501) [nM]	IC50 (HLA DRB1 *0101) [nM]	IC50 (HLA DRB1 *0401) [nM]	IC50 (HLA DRB4 *0101) [nM]	IC50 (HLA DRB1 *0802) [nM]	IC50 (HLA DRB1 *1101) [nM]	IC50 (HLA DRB1 *0701) [nM]
AAAKFVAAWTLKADA [SEQ ID NO: 30]	27	17	1160	807	19	9.7	19	5	7.3				
AAAHFVAAWTLKAEA [SEQ ID NO: 36]	44			1100	18		20	5.1	6.4	677	22	53	
AAAHFVAAWTLKADA [SEQ ID NO: 31]		16		875	23	7.1		5.1	8.5	2100	24		
AAAEFVAAWTLKAAA [SEQ ID NO: 45]	41	9.8	169	840	6.7	2.8	56	2.5	3.8	332	16	45	
AAAKFVAAWTLKAEA [SEQ ID NO: 35]	41	8.4			17		23		6.5	710	21	36	
AAANFVAAYTLHAAA [SEQ ID NO: 52]		19	171	1420			4.2	2.7				16	67
AAADFVAAWTLHAAA [SEQ ID NO: 41]	40	27	249			7.1	89	4.9	5.3		24	28	152
AAAHFVAAFTLHAAA [SEQ ID NO: 28]	24		228			3.1	13	4	2.2	100	11	8.1	
AAAHFVAANTLKAEA [SEQ ID NO: 39]		36		234		14		7.1	12	941	64		83
AAAHFVAAYTLKAEA [SEQ ID NO: 37]	35	11		1010	16	5.3	10	6.9	7.5	721		44	
AAAHFVAAFTLKAEA [SEQ ID NO: 38]	46	8.1		801	19	8.1	31		6.4		19	41	
AAADFVAAYTLHAAA [SEQ ID NO: 42]	32	21	286			5.3	19	4.8	4.5		14	40	182
AAANFVAAWTLKAAA [SEQ ID NO: 50]		18	372		8.7	5.9	12	4.4			8.5	14	
